Measurements as given in paper PMC11768629, “Potential Interaction of Pinocembrin with Drug Transporters and Hepatic Drug-Metabolizing Enzymes” (Pharmaceuticals, 2025).

Legend:
BCRP = target: T1, BCRP (Homo sapiens, UniProt Q9UNQ0); experiment: BCRP-mediated 3H-estrone sulfate transepithelial transport in Caco-2 cell monolayers; format: cell-based; settings: pinocembrin, compared with vehicle control
T1 construct: Caco-2 cell monolayers, which express both P-gp and BCRP; host or cells: Caco-2
Protocol: The interactions of pinocembrin with P-gp and BCRP were determined by the measurement of P-gp-mediated ^3H-digoxin transport and BCRP-mediated ^3H-estrone sulfate transport in Caco-2 cell monolayers, which express both P-gp and BCRP [20].
P-gp- and BCRP-mediated transport were measured by the transepithelial transport of their substrates (^3H-digoxin for P-gp and ^3H-estrone sulfate for BCRP) in Caco-2 cell monolayers. […] Caco-2 cells were cultured on membrane inserts (Corning Inc., Corning, NY, USA) for 21 days. Cell monolayers showing transepithelial electrical resistance values > 600 Ω.cm^2 were included in the experiment. […] The basolateral side was replaced with a transport buffer. The sample from the basolateral side was transferred to vials containing a liquid scintillation cocktail to measure radioactivity by a β-counter (Packard BioScience, Wellesley, MA, USA).

hOAT3 = target: T2, hOAT3 (Homo sapiens, UniProt Q8TCC7); experiment: Cis-inhibition assay, 3H-estrone sulfate uptake in hOAT3-MDCK cells; format: cell-based; settings: 10 µM pinocembrin, compared with vehicle control
T2 construct: host or cells: MDCK
T2 sequence (Q8TCC7 1-542): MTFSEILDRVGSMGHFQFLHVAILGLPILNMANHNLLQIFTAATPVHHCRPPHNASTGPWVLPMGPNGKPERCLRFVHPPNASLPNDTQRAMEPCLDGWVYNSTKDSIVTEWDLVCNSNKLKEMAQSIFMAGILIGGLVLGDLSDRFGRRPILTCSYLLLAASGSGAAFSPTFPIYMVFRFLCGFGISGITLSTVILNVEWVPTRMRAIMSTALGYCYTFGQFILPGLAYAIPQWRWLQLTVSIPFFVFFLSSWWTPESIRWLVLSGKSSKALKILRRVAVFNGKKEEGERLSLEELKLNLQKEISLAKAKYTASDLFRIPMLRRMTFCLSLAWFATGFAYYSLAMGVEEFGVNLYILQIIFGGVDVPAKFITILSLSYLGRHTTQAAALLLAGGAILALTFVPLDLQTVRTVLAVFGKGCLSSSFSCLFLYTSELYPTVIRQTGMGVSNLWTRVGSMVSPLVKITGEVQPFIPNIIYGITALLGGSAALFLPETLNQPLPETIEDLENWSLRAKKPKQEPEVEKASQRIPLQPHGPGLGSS
Protocol: (§1) Next, the effects of pinocembrin on the transport function of renal drug transporters, including hOAT1, hOAT3, hOCT1, hOCT2, hMATE1, and hMATE2, were determined.
(§2) A cell monolayer comprising hOAT1-MDCK, hOAT3-MDCK, hOCT1-CHO-K1, hOCT2-CHO-K1, hMATE1-CHO-K1, hMATE2-CHO-K1, and mock cells were utilized for the uptake experiments. The cells were washed three times with a buffer containing (in mM) 140 NaCl, 5 KCl, 0.4 MgSO4, 0.5 MgCl2, 1 CaCl2, 0.3 Na2HPO4, 0.4 KH2PO4, 6 D-glucose, and 4 NaHCO3 at pH 7.4 and incubated at 37 °C for 15 min. After incubation, the hOAT1-MDCK and hOAT3-MDCK cells were incubated for 10 min with ^3H-PAH and ^3H-estrone sulfate, a substrate of hOAT1 and hOAT3, respectively. The hOCT1-CHO-K1 and hOCT2-CHO-K1 cells were incubated with ^3H-MPP^+, a substrate of OCT1 and OCT2, for five minutes. The functions of MATE1 and MATE2 were determined by incubating the hMATE1-CHO-K1 and hMATE2-CHO-K1 cells with a buffer containing ^3H-MPP^+, a substrate of MATE1 and MATE2, at pH 8.5 for five minutes. The cells were washed three times with an ice-cold buffer to stop the transport function. The cells were lyzed with 0.4 N NaOH for at least four hours. The samples were collected and transferred to vials containing a liquid scintillation cocktail to measure radioactivity by a β-counter (Packard BioScience, Wellesley, MA, USA). […]

hOCT2 = target: T3, hOCT2 (Homo sapiens, UniProt O15244); experiment: Cis-inhibition assay, 3H-MPP+ uptake in hOCT2-CHO-K1 cells; format: cell-based; settings: pinocembrin
T3 construct: host or cells: CHO-K1
T3 sequence (O15244 whole entry): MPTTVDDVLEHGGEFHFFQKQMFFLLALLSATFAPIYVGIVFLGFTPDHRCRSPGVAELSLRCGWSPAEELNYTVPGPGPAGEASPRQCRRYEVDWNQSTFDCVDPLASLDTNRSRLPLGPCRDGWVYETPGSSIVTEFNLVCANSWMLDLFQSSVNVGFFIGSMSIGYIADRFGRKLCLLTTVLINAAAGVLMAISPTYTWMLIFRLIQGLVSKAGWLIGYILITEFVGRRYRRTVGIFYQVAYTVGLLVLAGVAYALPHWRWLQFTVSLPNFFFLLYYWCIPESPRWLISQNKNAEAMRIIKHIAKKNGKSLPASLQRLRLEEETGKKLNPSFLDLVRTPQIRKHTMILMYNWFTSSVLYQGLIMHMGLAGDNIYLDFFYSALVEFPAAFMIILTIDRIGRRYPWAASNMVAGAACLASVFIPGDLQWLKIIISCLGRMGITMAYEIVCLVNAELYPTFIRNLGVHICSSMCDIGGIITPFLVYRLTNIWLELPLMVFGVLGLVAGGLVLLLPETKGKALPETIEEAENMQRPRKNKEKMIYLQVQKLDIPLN
Protocol: as §1, §2

hMATE2 = target: T4, hMATE2 (Homo sapiens, UniProt Q86VL8); experiment: Cis-inhibition assay, 3H-MPP+ uptake in hMATE2-CHO-K1 cells; format: cell-based; settings: pinocembrin, pH 8.5
T4 construct: host or cells: CHO-K1
T4 sequence (Q86VL8 whole entry): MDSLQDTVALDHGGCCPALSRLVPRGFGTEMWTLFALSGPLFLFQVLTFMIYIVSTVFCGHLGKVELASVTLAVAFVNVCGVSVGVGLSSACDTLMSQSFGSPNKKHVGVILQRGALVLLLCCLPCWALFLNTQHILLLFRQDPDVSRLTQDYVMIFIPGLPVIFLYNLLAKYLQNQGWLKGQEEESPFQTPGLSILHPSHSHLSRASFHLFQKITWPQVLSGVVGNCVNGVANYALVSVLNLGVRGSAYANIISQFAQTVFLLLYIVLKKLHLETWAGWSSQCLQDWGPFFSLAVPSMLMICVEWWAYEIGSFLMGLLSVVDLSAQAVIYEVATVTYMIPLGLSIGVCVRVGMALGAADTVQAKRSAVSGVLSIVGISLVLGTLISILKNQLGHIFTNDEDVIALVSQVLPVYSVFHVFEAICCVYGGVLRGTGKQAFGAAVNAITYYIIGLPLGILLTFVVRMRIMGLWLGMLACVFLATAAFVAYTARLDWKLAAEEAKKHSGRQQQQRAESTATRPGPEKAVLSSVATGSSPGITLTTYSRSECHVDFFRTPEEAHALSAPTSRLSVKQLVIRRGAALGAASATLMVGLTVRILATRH
Protocol: as §1, §2

hOAT1 = target: T5, hOAT1 (Homo sapiens, UniProt Q4U2R8); experiment: Pinocembrin treatment followed by 3H-PAH accumulation in hOAT1-MDCK cells; format: cell-based; settings: 1, 10 and 50 μM for 24 h, concentration-dependent, compared with vehicle
T5 construct: host or cells: MDCK
T5 sequence (Q4U2R8 1-563): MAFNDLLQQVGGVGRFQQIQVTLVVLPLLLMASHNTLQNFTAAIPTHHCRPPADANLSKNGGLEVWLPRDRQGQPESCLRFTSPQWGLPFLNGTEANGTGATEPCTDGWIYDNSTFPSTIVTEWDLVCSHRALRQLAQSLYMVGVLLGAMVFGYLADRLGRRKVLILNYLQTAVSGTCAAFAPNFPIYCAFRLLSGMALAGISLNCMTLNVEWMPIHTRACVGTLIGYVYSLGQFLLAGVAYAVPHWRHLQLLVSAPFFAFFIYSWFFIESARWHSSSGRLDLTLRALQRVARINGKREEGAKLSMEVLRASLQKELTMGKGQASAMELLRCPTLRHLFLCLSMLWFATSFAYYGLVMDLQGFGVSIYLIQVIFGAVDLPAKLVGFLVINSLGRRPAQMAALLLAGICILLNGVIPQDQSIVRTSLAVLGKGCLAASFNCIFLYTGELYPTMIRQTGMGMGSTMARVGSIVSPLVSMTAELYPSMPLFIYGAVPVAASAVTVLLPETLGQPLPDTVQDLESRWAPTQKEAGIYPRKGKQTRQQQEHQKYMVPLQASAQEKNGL
Protocol: (§3) The hOAT1-MDCK cells and hOAT3-MDCK cells were treated with 1, 10, and 50 μM pinocembrin for 24 h, followed by a measurement of ^3H-PAH and ^3H-estrone sulfate cellular accumulation. […] The inhibitory effect of pinocembrin occurred in a concentration-dependent manner.
as §2, with “The cells were lyzed with 0.4 N NaOH for at least four hours.” left out

hOAT1-MDCK cells = experiment: Cell viability assay (MTT) in hOAT1-MDCK cells; format: cell-based, canine
Protocol: as §3
We determined whether the inhibitory effect of pinocembrin on hOAT1 and hOAT3. We studied whether pinocembrin could reduce the renal toxicity of tenofovir, a substrate of hOAT1 and hOAT3 known for inducing renal tubular dysfunction.
The confluent cells in 96-well plates were treated with pinocembrin for 48 h at 37 °C. After that, the cells were incubated with 0.5 mg/mL MTT solution for four hours. The MTT solution was removed, and DMSO (100 µL) was added to dissolve the crystal formazan. The formazan content was detected at a wavelength of 570 nm using a microplate reader. Cell viability was reported as a percentage of the vehicle-treated cells.

CYP2C19 = target: T6, CYP2C19 (Homo sapiens, UniProt P33261); experiment: Cell-free CYP450 inhibition assay, CYP2C19; format: biochemical; settings: cell-free fluorescent probe assay
T6 construct: purchased Life Technologies
T6 sequence (P33261 whole entry): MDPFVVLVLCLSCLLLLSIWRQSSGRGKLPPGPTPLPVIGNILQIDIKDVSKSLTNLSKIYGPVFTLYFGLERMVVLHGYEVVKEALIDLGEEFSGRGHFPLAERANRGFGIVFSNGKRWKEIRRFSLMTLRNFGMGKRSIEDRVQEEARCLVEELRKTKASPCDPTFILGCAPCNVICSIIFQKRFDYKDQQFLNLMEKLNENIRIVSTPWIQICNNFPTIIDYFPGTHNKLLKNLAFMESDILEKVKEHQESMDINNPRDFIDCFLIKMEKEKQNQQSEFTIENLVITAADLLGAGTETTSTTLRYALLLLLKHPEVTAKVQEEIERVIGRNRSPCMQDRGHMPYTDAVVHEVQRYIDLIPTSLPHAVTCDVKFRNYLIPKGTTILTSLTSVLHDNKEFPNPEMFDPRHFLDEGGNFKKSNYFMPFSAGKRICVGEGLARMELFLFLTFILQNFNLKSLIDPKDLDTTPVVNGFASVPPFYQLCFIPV
Protocol: To determine whether pinocembrin influences the catalytic activity of CYP450 enzymes, fluorescent probe reaction assays were performed using varying concentrations of pinocembrin. […] In addition, molecular docking was conducted to better understand the binding mode and interactions between pinocembrin and human CYP2C19.
The CYP450 inhibitory activity of pinocembrin was determined using a P450 screening kit (Life Technologies; Carlsbad, CA, USA). Varied concentrations of pinocembrin were prepared in methanol. […] The fluorescence intensities were monitored every minute for 60 min at room temperature. The percentage of inhibition was calculated according to the following equation: % Inhibition=(1−X−B/A−B)×100% where X is the fluorescence intensity observed in the presence of pinocembrin.

T1 sequence (Q9UNQ0 whole entry): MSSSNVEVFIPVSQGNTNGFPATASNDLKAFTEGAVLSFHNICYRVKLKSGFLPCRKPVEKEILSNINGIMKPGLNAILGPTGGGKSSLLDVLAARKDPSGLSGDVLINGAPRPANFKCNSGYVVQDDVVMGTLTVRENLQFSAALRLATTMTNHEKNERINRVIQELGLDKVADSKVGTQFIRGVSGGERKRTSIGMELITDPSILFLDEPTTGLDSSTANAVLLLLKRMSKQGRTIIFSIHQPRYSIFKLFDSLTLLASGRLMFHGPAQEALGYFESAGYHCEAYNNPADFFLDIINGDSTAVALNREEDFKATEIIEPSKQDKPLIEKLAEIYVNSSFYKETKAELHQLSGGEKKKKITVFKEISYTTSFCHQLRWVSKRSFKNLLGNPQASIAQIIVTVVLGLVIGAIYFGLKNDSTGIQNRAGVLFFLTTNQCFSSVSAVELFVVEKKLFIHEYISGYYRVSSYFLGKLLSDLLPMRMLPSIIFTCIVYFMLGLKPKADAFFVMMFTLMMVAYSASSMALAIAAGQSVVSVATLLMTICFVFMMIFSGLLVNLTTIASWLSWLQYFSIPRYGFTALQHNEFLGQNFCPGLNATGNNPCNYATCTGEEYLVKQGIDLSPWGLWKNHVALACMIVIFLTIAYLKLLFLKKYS

O=C1C[C@@H](c2ccccc2)Oc2cc(O)cc(O)c21 [pinocembrin]
transport of 3H-estrone sulfate from the apical to basolateral side (BCRP): did not affect
3H-estrone sulfate cellular accumulation (hOAT3): significantly decreased
hOCT2-mediated uptake of 3H-MPP+ (hOCT2): did not alter
hMATE2-mediated uptake of 3H-MPP+ (hMATE2): did not alter
3H-PAH accumulation after pinocembrin treatment (hOAT1): significantly decreased
cell viability (hOAT1-MDCK cells; pinocembrin 1, 10 and 50 μM, compared to vehicle-treated cells): did not affect cell viability
cell viability on co-treatment with tenofovir (hOAT1-MDCK cells; tenofovir plus pinocembrin, 48 h, compared with tenofovir-treated cells alone): considerably increased cell viability
IC50 (CYP2C19; BACULOSOMES): 4.5 µM
IC50 at 60 min (CYP2C19; human, CYP2C19 BACULOSOMES (cell-free recombinant enzyme)): 4.49 µM
